Experiments:
Assay in all cases: Test E pre-/postemergence plant response
Type in all cases: in vivo
[1] = test system: Italian ryegrass (Lolium multiflorum); details: scale 0 to 100
Method in brief: (§1)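 Scores are visual estimates of control on a 0 to 100 scale, made against untreated plants 14 to 21 days after treatment in the greenhouse. Application was preemergence to sown seeds or postemergence to 2–18 cm plants (1- to 4-leaf stage), using a surfactant-containing non-phytotoxic solvent formulation.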

[2] = test system: annual bluegrass (Poa annua); details: scale 0 to 100
Method in brief: as §1

[3] = test system: broadleaf signalgrass (Brachiaria platyphylla); details: scale 0 to 100
Method in brief: as §1

[4] = test system: common chickweed (Stellaria media); details: Postemergence, scale 0 to 100
Method in brief: as §1

[5] = test system: dallisgrass (Paspalum dilatatum); details: scale 0 to 100
Method in brief: as §1

[6] = test system: goosegrass (Eleusine indica); details: scale 0 to 100
Method in brief: as §1

[7] = test system: green foxtail (Setaria viridis); details: scale 0 to 100
Method in brief: as §1

[8] = test system: guineagrass (Panicum maximum); details: scale 0 to 100
Method in brief: as §1

[9] = test system: itchgrass (Rottboellia cochinchinensis); details: scale 0 to 100
Method in brief: as §1

[10] = test system: johnsongrass (Sorghum halepense); details: scale 0 to 100
Method in brief: as §1

[11] = test system: large crabgrass (Digitaria sanguinalis); details: scale 0 to 100
Method in brief: as §1

[12] = test system: naked crabgrass (Digitaria nuda); details: scale 0 to 100
Method in brief: as §1

[13] = test system: purple nutsedge (Cyperus rotundus); details: scale 0 to 100
Method in brief: as §1

[14] = test system: surinam grass (Brachiaria decumbens); details: scale 0 to 100
Method in brief: as §1

CCc1cc(-c2ccc(Cl)cc2)nn1-c1c(OC(=O)C(C)(C)C)cnn(C)c1=O [Compound 40]
Plant response rating, Ryegrass, Italian ([1]; 16 g ai/ha, Preemergence): 98
Plant response rating, Ryegrass, Italian ([1]; 31 g ai/ha, Preemergence): 100
Plant response rating, Ryegrass, Italian ([1]; 62 g ai/ha, Preemergence): 100
Plant response rating, Ryegrass, Italian ([1]; Postemergence, 8 g ai/ha): 90
Plant response rating, Ryegrass, Italian ([1]; Postemergence, 16 g ai/ha): 90
Plant response rating, Ryegrass, Italian ([1]; Postemergence, 31 g ai/ha): 100
Plant response rating, Ryegrass, Italian ([1]; Postemergence, 62 g ai/ha): 100
Plant response rating, Bluegrass ([2]; 8 g ai/ha, Preemergence): 60
Plant response rating, Bluegrass ([2]; 16 g ai/ha, Preemergence): 90
Plant response rating, Bluegrass ([2]; 62 g ai/ha, Preemergence): 95
Plant response rating, Bluegrass ([2]; Postemergence, 8 g ai/ha): 0
Plant response rating, Bluegrass ([2]; Postemergence, 16 g ai/ha): 0
Plant response rating, Bluegrass ([2]; Postemergence, 31 g ai/ha): 15
Plant response rating, Bluegrass ([2]; Postemergence, 62 g ai/ha): 15
Plant response rating, Signalgrass ([3]; 16 g ai/ha, Preemergence): 95
Plant response rating, Signalgrass ([3]; 31 g ai/ha, Preemergence): 98
Plant response rating, Signalgrass ([3]; 62 g ai/ha, Preemergence): 100
Plant response rating, Signalgrass ([3]; Postemergence, 8 g ai/ha): 75
Plant response rating, Signalgrass ([3]; Postemergence, 16 g ai/ha): 90
Plant response rating, Signalgrass ([3]; Postemergence, 31 g ai/ha): 95
Plant response rating, Signalgrass ([3]; Postemergence, 62 g ai/ha): 100
Plant response rating, Chickweed ([4]; 8 g ai/ha): 0
Plant response rating, Chickweed ([4]; 16 g ai/ha): 0
Plant response rating, Chickweed ([4]; 31 g ai/ha): 0
Plant response rating, Dallisgrass ([5]; 8 g ai/ha, Preemergence): 80
Plant response rating, Dallisgrass ([5]; 16 g ai/ha, Preemergence): 95
Plant response rating, Dallisgrass ([5]; 31 g ai/ha, Preemergence): 100
Plant response rating, Dallisgrass ([5]; 62 g ai/ha, Preemergence): 100
Plant response rating, Dallisgrass ([5]; Postemergence, 8 g ai/ha): 65
Plant response rating, Dallisgrass ([5]; Postemergence, 16 g ai/ha): 75
Plant response rating, Dallisgrass ([5]; Postemergence, 31 g ai/ha): 80
Plant response rating, Dallisgrass ([5]; Postemergence, 62 g ai/ha): 95
Plant response rating, Goosegrass ([6]; 8 g ai/ha, Preemergence): 75
Plant response rating, Goosegrass ([6]; 16 g ai/ha, Preemergence): 98
Plant response rating, Goosegrass ([6]; 31 g ai/ha, Preemergence): 100
Plant response rating, Goosegrass ([6]; 62 g ai/ha, Preemergence): 100
Plant response rating, Goosegrass ([6]; Postemergence, 8 g ai/ha): 65
Plant response rating, Goosegrass ([6]; Postemergence, 16 g ai/ha): 65
Plant response rating, Goosegrass ([6]; Postemergence, 31 g ai/ha): 80
Plant response rating, Goosegrass ([6]; Postemergence, 62 g ai/ha): 95
Plant response rating, Foxtail, Green ([7]; 8 g ai/ha, Preemergence): 40
Plant response rating, Foxtail, Green ([7]; 16 g ai/ha, Preemergence): 75
Plant response rating, Foxtail, Green ([7]; 31 g ai/ha, Preemergence): 98
Plant response rating, Foxtail, Green ([7]; 62 g ai/ha, Preemergence): 100
Plant response rating, Foxtail, Green ([7]; Postemergence, 8 g ai/ha): 70
Plant response rating, Foxtail, Green ([7]; Postemergence, 16 g ai/ha): 80
Plant response rating, Foxtail, Green ([7]; Postemergence, 31 g ai/ha): 95
Plant response rating, Foxtail, Green ([7]; Postemergence, 62 g ai/ha): 98
Plant response rating, Guineagrass ([8]; 16 g ai/ha, Preemergence): 100
Plant response rating, Guineagrass ([8]; 31 g ai/ha, Preemergence): 100
Plant response rating, Guineagrass ([8]; 62 g ai/ha, Preemergence): 100
Plant response rating, Guineagrass ([8]; Postemergence, 8 g ai/ha): 80
Plant response rating, Guineagrass ([8]; Postemergence, 16 g ai/ha): 90
Plant response rating, Guineagrass ([8]; Postemergence, 31 g ai/ha): 95
Plant response rating, Guineagrass ([8]; Postemergence, 62 g ai/ha): 100
Plant response rating, Itchgrass ([9]; 16 g ai/ha, Preemergence): 60
Plant response rating, Itchgrass ([9]; 31 g ai/ha, Preemergence): 75
Plant response rating, Itchgrass ([9]; 62 g ai/ha, Preemergence): 85
Plant response rating, Itchgrass ([9]; Postemergence, 8 g ai/ha): 40
Plant response rating, Itchgrass ([9]; Postemergence, 16 g ai/ha): 40
Plant response rating, Itchgrass ([9]; Postemergence, 31 g ai/ha): 80
Plant response rating, Itchgrass ([9]; Postemergence, 62 g ai/ha): 80
Plant response rating, Johnsongrass ([10]; 16 g ai/ha, Preemergence): 75
Plant response rating, Johnsongrass ([10]; 31 g ai/ha, Preemergence): 75
Plant response rating, Johnsongrass ([10]; 62 g ai/ha, Preemergence): 98
Plant response rating, Johnsongrass ([10]; Postemergence, 8 g ai/ha): 60
Plant response rating, Johnsongrass ([10]; Postemergence, 16 g ai/ha): 60
Plant response rating, Johnsongrass ([10]; Postemergence, 31 g ai/ha): 90
Plant response rating, Johnsongrass ([10]; Postemergence, 62 g ai/ha): 98
Plant response rating, Crabgrass, Large ([11]; 8 g ai/ha, Preemergence): 50
Plant response rating, Crabgrass, Large ([11]; 16 g ai/ha, Preemergence): 70
Plant response rating, Crabgrass, Large ([11]; 31 g ai/ha, Preemergence): 100
Plant response rating, Crabgrass, Large ([11]; 62 g ai/ha, Preemergence): 100
Plant response rating, Crabgrass, Large ([11]; Postemergence, 8 g ai/ha): 75
Plant response rating, Crabgrass, Large ([11]; Postemergence, 16 g ai/ha): 85
Plant response rating, Crabgrass, Large ([11]; Postemergence, 31 g ai/ha): 90
Plant response rating, Crabgrass, Large ([11]; Postemergence, 62 g ai/ha): 95
Plant response rating, Crabgrass, Naked ([12]; 8 g ai/ha, Preemergence): 90
Plant response rating, Crabgrass, Naked ([12]; 16 g ai/ha, Preemergence): 90
Plant response rating, Crabgrass, Naked ([12]; 31 g ai/ha, Preemergence): 100
Plant response rating, Crabgrass, Naked ([12]; 62 g ai/ha, Preemergence): 100
Plant response rating, Crabgrass, Naked ([12]; Postemergence, 8 g ai/ha): 50
Plant response rating, Crabgrass, Naked ([12]; Postemergence, 16 g ai/ha): 75
Plant response rating, Crabgrass, Naked ([12]; Postemergence, 31 g ai/ha): 95
Plant response rating, Crabgrass, Naked ([12]; Postemergence, 62 g ai/ha): 100
Plant response rating, Nutsedge, Purple ([13]; 16 g ai/ha, Preemergence): 0
Plant response rating, Nutsedge, Purple ([13]; 31 g ai/ha, Preemergence): 0
Plant response rating, Nutsedge, Purple ([13]; 62 g ai/ha, Preemergence): 0
Plant response rating, Nutsedge, Purple ([13]; Postemergence, 8 g ai/ha): 0
Plant response rating, Nutsedge, Purple ([13]; Postemergence, 16 g ai/ha): 0
Plant response rating, Nutsedge, Purple ([13]; Postemergence, 31 g ai/ha): 0
Plant response rating, Nutsedge, Purple ([13]; Postemergence, 62 g ai/ha): 0
Plant response rating, Surinam Grass ([14]; 16 g ai/ha, Preemergence): 100
Plant response rating, Surinam Grass ([14]; 31 g ai/ha, Preemergence): 100
Plant response rating, Surinam Grass ([14]; 62 g ai/ha, Preemergence): 100
Plant response rating, Surinam Grass ([14]; Postemergence, 8 g ai/ha): 90
Plant response rating, Surinam Grass ([14]; Postemergence, 16 g ai/ha): 90
Plant response rating, Surinam Grass ([14]; Postemergence, 31 g ai/ha): 100
Plant response rating, Surinam Grass ([14]; Postemergence, 62 g ai/ha): 100
